This note sets out measurements from patent US7728146B2, “Enzyme inhibitors” (Probiodrug AG, priority 2006, dated 2010).

Structures are written as SMILES.

The target in the experiment is DP IV (Homo sapiens, UniProt P27487). Put plainly: DP IV inhibition IC50, parallel-synthesis compounds tested directly following synthesis (without purification). The experiment is classed as biochemical. The settings on record: tested directly following parallel synthesis, without purification; read-out: IC50 DP4. More on the design: IC50 DP4; other: tested directly following parallel synthesis, without purification; compounds of formula (Ib) from parallel synthesis, tested directly following synthesis. The method in brief: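 IC50 came from a 4-parameter fit of residual activity (linear 405 nm slopes for pNA release over ~18 min, relative to solvent-only wells). Gly-Pro-pNA was the substrate, cleaved by porcine kidney or recombinant human DP IV at room temperature in HEPES with 5% DMSO; duplicate 1:2 series started at 100 μM final.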
`COc1ccc(-c2ncn(Cc3cc(Br)ccc3F)c2CN)c(C)c1` [Example 71a, C-[3-(5-Bro-mo-2-fluoro-benzyl)-5-(4-meth-oxy-2-methyl-phenyl)-3H-imid-azol-4-yl]-methyl-amine]: the concentration for half-maximal inhibition (IC50) stood at 30.7 µM. For the compound `NCc1c(-c2ccc(F)cc2F)ncn1Cc1ccco1` [Example 72a, C-[5-(2,4-Difluoro-phenyl)-3-furan-2-ylmethyl-3H-imidazol-4-yl]-methylamine], the IC50 came to 11.8 µM.

As for `NCc1c(-c2ccc(F)cc2F)ncn1Cc1ccccc1Cl` [Example 73a, C-[3-(2-Chloro-benzyl)-5-(2,4-difluoro-phenyl)-3H-imid-azol-4-yl]-methyl-amine], the half-maximal inhibitory concentration (IC50) came out at 27.1 µM. For the compound `NCc1c(-c2ccc(F)cc2F)ncn1Cc1ccc(F)cc1` [Example 74a, C-[5-(2,4-Difluoro-phenyl)-3-(4-fluoro-benzyl)-3H-imid-azol-4-yl]-methyl-amine], the IC50 came out at 44.2 µM.

For the compound `NCc1c(-c2ccc(F)cc2F)ncn1Cc1cccc(C(F)(F)F)c1` [Example 75a, C-[5-(2,4-Difluoro-phenyl)-3-(3-tri-fluoromethyl-benzyl)-3H-imid-azol-4-yl]-methyl-amine], the IC50 worked out at 28.9 µM.

For the compound `NCc1c(-c2ccc(F)cc2F)ncn1Cc1ccc(F)cc1F` [Example 76a, C-[3-(2,4-Difluoro-benzyl)-5-(2,4-difluoro-phenyl)-3H-imid-azol-4-yl]-methyl-amine], the half-inhibitory concentration (IC50) was determined as 40.6 µM. Consider `COc1cccc(Cn2cnc(-c3ccc(F)cc3F)c2CN)c1` [Example 77a, C-[5-(2,4-Difluoro-phenyl)-3-(3-methoxy-benzyl)-3H-imid-azol-4-yl]-methyl-amine], for which the IC50 turned out to be 24.4 µM. For `NCc1c(-c2ccc(F)cc2F)ncn1Cc1cccc(F)c1` [Example 78a, C-[5-(2,4-Difluoro-phenyl)-3-(3-fluoro-benzyl)-3H-imid-azol-4-yl]-methyl-amine], the IC50 turned out to be 46 µM. As for `NCc1c(-c2ccc(F)cc2F)ncn1Cc1cc(Br)ccc1F` [Example 79a, C-[3-(5-Bro-mo-2-fluoro-benzyl)-5-(2,4-difluoro-phenyl)-3H-imid-azol-4-yl]-methyl-amine], the half-maximal inhibitory concentration (IC50) was 32.5 µM. For `NCc1c(-c2ccc(F)cc2F)ncn1Cc1ccccc1` [Example 80a, C-[3-Benzyl-5-(2,4-di-fluoro-phenyl)-3H-imid-azol-4-yl]-methyl-amine], the IC50 was found to be 19.9 µM.

For `NCc1c(-c2ccc(F)cc2F)ncn1Cc1ccc2c(c1)OCO2` [Example 81a, C-[3-Ben-zo[1,3]di-oxol-5-yl-methyl-5-(2,4-difluoro-phenyl)-3H-imid-azol-4-yl]-methyl-amine], the IC50 worked out at 46.9 µM. As to `CCOc1ccccc1Cn1cnc(-c2ccc(F)cc2F)c1CN` [Example 82a, C-[5-(2,4-Difluoro-phenyl)-3-(2-ethoxy-benzyl)-3H-imid-azol-4-yl]-methyl-amine], the concentration for half-maximal inhibition (IC50) was 14.5 µM. Turning to `CC(C)(C)Cn1cnc(-c2ccc(F)cc2F)c1CN` [Example 83a, C-[5-(2,4-Difluoro-phenyl)-3-(2,2-dimethyl-propyl)-3H-imid-azol-4-yl]-methyl-amine], the IC50 amounted to 27.1 µM.

As to `NCc1c(-c2ccc(F)cc2F)ncn1Cc1ccccc1OC(F)(F)F` [Example 84a, C-[5-(2,4-Difluoro-phenyl)-3-(2-trifluoromethoxy-benzyl)-3H-imidazol-4-yl]-methylamine], the 50% inhibitory concentration (IC50) came to 9.1 µM.

With `NCc1c(-c2ccc(F)cc2F)ncn1Cc1cc(F)ccc1F` [Example 85a, C-[3-(2,5-Difluoro-benzyl)-5-(2,4-difluoro-phenyl)-3H-imid-azol-4-yl]-methyl-amine], the half-maximal inhibitory concentration (IC50) turned out to be 36.1 µM.

For `NCc1c(-c2ccc(F)cc2F)ncn1Cc1ccccc1F` [Example 86a, C-[5-(2,4-Difluoro-phenyl)-3-(2-fluoro-benzyl)-3H-imid-azol-4-yl]-methyl-amine], the half-inhibitory concentration (IC50) came out at 32.5 µM.

Turning to `NCc1c(-c2ccc(F)cc2F)ncn1Cc1ccc(F)cc1Cl` [Example 87a, C-[3-(2-Chloro-4-fluoro-benzyl)-5-(2,4-difluoro-phenyl)-3H-imid-azol-4-yl]-methyl-amine], the IC50 came to 25.3 µM.

A word on the IC50: it is the point on the concentration scale where inhibition reaches its midpoint.
